Data taken from patent US11767320B2, “Bicyclic dione compounds as inhibitors of KRAS” (INCYTE CORPORATION, priority 2020, dated 2023).

Target: KRAS G12C (Homo sapiens, UniProt P01116, G12C)
Test: GDP-GTP exchange assay (fluorescence based guanine nucleotide exchange, bodipy-GDP for GppNHp, SOS1)
Type: biochemical
Conditions: bodipy-loaded KRAS G12C, 2 hours pre-incubation with inhibitor, read-out: G12C_exchange (KRAS_G12C exchange assay IC50)
Experimental: The inhibitor potency of the exemplified compounds was determined in a fluorescence based guanine nucleotide exchange assay, which measures the exchange of bodipy-GDP (fluorescently labeled GDP) for GppNHp (Non-hydrolyzable GTP analog) to generate the active state of KRAS in the presence of SOS1 (guanine nucleotide exchange factor). Inhibitors were serially diluted in DMSO and a volume of 0.1 μL was transferred to the wells of a black low volume 384-well plate. 5 μL/well volume of bodipy-loaded KRAS G12C diluted to 5 nM in assay buffer (25 mM Hepes pH 7.5, 50 mM NaCl, 10 mM MgCl2 and 0.01% Brij-35) was added to the plate and pre-incubated with inhibitor for 2 hours at ambient temperature. Appropriate controls (enzyme with no inhibitor or with a G12C inhibitor (AMG-510)) were included on the plate. The exchange was initiated by the addition of a 5 μL/well volume containing 1 mM GppNHp and 300 nM SOS1 in assay buffer. The 10 μL/well reaction concentration of the bodipy-loaded KRAS G12C, GppNHp, and SOS1 were 5-25 nM, 500 uM, and 150 nM, respectively. The reaction plates were incubated at ambient temperature for 2 hours, a time estimated for complete GDP-GTP exchange in the absence of inhibitor. For the KRAS G12D and G12V mutants, similar guanine nucleotide exchange assays were used with 2.5 nM as final concentration for the bodipy loaded KRAS proteins and with 4 hours and 3 hours incubation after adding GppNHp-SOS1 mixture for G12D and G12V, respectively. A cyclic peptide described to selectively bind G12D mutant (Sakamoto et al., BBRC 484.3 (2017), 605-611) or internal compounds with confirmed binding were used as positive controls in the assay plates. Fluorescence intensities were measured on a PheraStar plate reader instrument (BMG Labtech) with excitation at 485 nm and emission at 520 nm.
Either GraphPad prism or XLfit was used to analyze the data. The IC50 values were derived by fitting the data to a four parameter logistic equation producing a sigmoidal dose-response curve with a variable Hill coefficient. Prism equation: Y=Bottom+(Top−Bottom)/(1+10^((Log IC50−X)*Hill slope)); XLfit equation: Y=(A+((B−A)/(1+((X/C)^D)))) where X is the logarithm of inhibitor concentration and Y is the response.

KRAS G12C, sequence (P01116 1-188 isoform P01116-2 G12C): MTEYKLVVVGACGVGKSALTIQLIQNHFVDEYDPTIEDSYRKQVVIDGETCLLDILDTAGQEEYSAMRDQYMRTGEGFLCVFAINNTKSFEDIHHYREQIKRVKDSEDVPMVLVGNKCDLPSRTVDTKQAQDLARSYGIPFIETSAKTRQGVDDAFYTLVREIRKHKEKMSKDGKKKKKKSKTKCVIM

| Structure (SMILES) | IC50 [µM] |
| --- | --- |
| C=CC(=O)N1CCC(n2c(=O)c(=O)n(-c3c(CC)cccc3CC)c3nc(-c4ccccc4F)c(Cl)cc32)CC1 [Example 1, 1-(1-acryloylpiperidin-4-yl)-7-chloro-4-(2,6-diethylphenyl)-6-(2-fluorophenyl)-1,4-dihydropyrido[2,3-b]pyrazine-2,3-dione] | 5 to 10 |
| C=CC(=O)N1CCC(n2c(=O)c(=O)n(-c3c(CC)cccc3CC)c3nc(-c4c(O)cccc4F)c(Cl)cc32)CC1 [Example 2, 1-(1-acryloylpiperidin-4-yl)-7-chloro-4-(2,6-diethylphenyl)-6-(2-fluoro-6-hydroxyphenyl)-1,4-dihydropyrido[2,3-b]pyrazine-2,3-dione] | 1 to 5 |
| C=CC(=O)N1CC(Cn2c(=O)c(=O)n(-c3c(C(C)C)cccc3C(C)C)c3nc(-c4ccccc4F)c(Cl)cc32)C1 [Example 3, 1-((1-acryloylazetidin-3-yl)methyl)-7-chloro-4-(2,6-diisopropylphenyl)-6-(2-fluorophenyl)-1,4-dihydropyrido[2,3-b]pyrazine-2,3-dione] | 0.1 to 1 |
| C=CC(=O)N1CC(Cn2c(=O)c(=O)n(-c3c(CC)cccc3CC)c3nc(-c4ccccc4F)c(Cl)cc32)C1 [Example 4, 1-((1-acryloylazetidin-3-yl)methyl)-7-chloro-4-(2,6-diethylphenyl)-6-(2-fluorophenyl)-1,4-dihydropyrido[2,3-b]pyrazine-2,3-dione] | 0.1 to 1 |
| C=CC(=O)N1CC(Cn2c(=O)c(=O)n(-c3c(C(C)C)cccc3C(C)C)c3nc(-c4cccc5ccccc45)c(Cl)cc32)C1 [Example 6, 1-((1-acryloylazetidin-3-yl)methyl)-7-chloro-4-(2,6-diisopropylphenyl)-6-(1-naphthyl)-1,4-dihydropyrido[2,3-b]pyrazine-2,3-dione] | 1 to 5 |
| C=CC(=O)N1CC(F)(Cn2c(=O)c(=O)n(-c3c(C)ccnc3C(C)C)c3nc(-c4c(F)ccc(O)c4O)c(Cl)cc32)C1 [Example 26, 1-((1-acryloyl-3-fluoroazetidin-3-yl)methyl)-7-chloro-6-(6-fluoro-2,3-dihydroxyphenyl)-4-(2-isopropyl-4-methylpyridin-3-yl)-1,4-dihydropyrido[2,3-b]pyrazine-2,3-dione] | 0.1 to 1 |
| C=CC(=O)N1CC(F)(Cn2c(=O)c(=O)n(-c3c(C)ccnc3C(C)C)c3nc(-c4cccc5cn[nH]c45)c(Cl)cc32)C1 [Example 29, 1-((1-acryloyl-3-fluoroazetidin-3-yl)methyl)-7-chloro-6-(1H-indazol-7-yl)-4-(2-isopropyl-4-methylpyridin-3-yl)-1,4-dihydropyrido[2,3-b]pyrazine-2,3-dione] | 0.1 to 1 |
| C=CC(=O)N1CC(F)(Cn2c(=O)c(=O)n(-c3c(C)ccnc3C(C)C)c3nc(-c4cccc5nn[nH]c45)c(Cl)cc32)C1 [Example 30, 1-((1-acryloyl-3-fluoroazetidin-3-yl)methyl)-6-(1H-benzo[d][1,2,3]triazol-7-yl)-7-chloro-4-(2-isopropyl-4-methylpyridin-3-yl)-1,4-dihydropyrido[2,3-b]pyrazine-2,3-dione] | 0.1 to 1 |
| C=CC(=O)N1CC(F)(Cn2c(=O)c(=O)n(-c3c(C)ccnc3C(C)C)c3nc(-c4cccnc4N)c(Cl)cc32)C1 [Example 31, 1-((1-acryloyl-3-fluoroazetidin-3-yl)methyl)-6-(2-aminopyridin-3-yl)-7-chloro-4-(2-isopropyl-4-methylpyridin-3-yl)-1,4-dihydropyrido[2,3-b]pyrazine-2,3-dione] | 0.1 to 1 |
| C=CC(=O)N1CC(F)(Cn2c(=O)c(=O)n(-c3c(C)ccnc3C(C)C)c3nc(-c4cccc5ccc(=O)[nH]c45)c(Cl)cc32)C1 [Example 32, 1-((1-acryloyl-3-fluoroazetidin-3-yl)methyl)-7-chloro-4-(2-isopropyl-4-methylpyridin-3-yl)-6-(2-oxo-1,2-dihydroquinolin-8-yl)-1,4-dihydropyrido[2,3-b]pyrazine-2,3-dione] | 0.1 to 1 |
| C=CC(=O)N1CC(Cn2c(=O)c(=O)n(-c3c(C)ccnc3C(C)C)c3nc(-c4ccccc4F)c(Cl)cc32)(OC)C1 [Example 41, 1-((1-acryloyl-3-methoxyazetidin-3-yl)methyl)-6-(2-fluorophenyl)-7-chloro-4-(2-isopropyl-4-methylpyridin-3-yl)-1,4-dihydropyrido[2,3-b]pyrazine-2,3-dione] | 0.1 to 1 |
| C=CC(=O)N1CC(O)(Cn2c(=O)c(=O)n(-c3c(C)ccnc3C(C)C)c3nc(-c4ccccc4F)c(Cl)cc32)C1 [Example 43, 1-((1-acryloyl-3-hydroxyazetidin-3-yl)methyl)-7-chloro-6-(2-fluorophenyl)-4-(2-isopropyl-4-methylpyridin-3-yl)-1,4-dihydropyrido[2,3-b]pyrazine-2,3-dione] | 0.1 to 1 |
| C=CC(=O)N1CC(O)(Cn2c(=O)c(=O)n(-c3c(C)ccnc3C(C)C)c3nc(-c4c(F)ccc(F)c4O)c(Cl)cc32)C1 [Example 44, 1-((1-acryloyl-3-hydroxyazetidin-3-yl)methyl)-7-chloro-6-(3,6-difluoro-2-hydroxyphenyl)-4-(2-isopropyl-4-methylpyridin-3-yl)-1,4-dihydropyrido[2,3-b]pyrazine-2,3-dione] | 0.1 to 1 |
| C=CC(=O)N1CC(O)(Cn2c(=O)c(=O)n(-c3c(C)ccnc3C(C)C)c3nc(-c4c(O)cc(C)cc4F)c(Cl)cc32)C1 [Example 46, 1-((1-acryloyl-3-hydroxyazetidin-3-yl)methyl)-7-chloro-6-(2-fluoro-6-hydroxy-4-methylphenyl)-4-(2-isopropyl-4-methylpyridin-3-yl)-1,4-dihydropyrido[2,3-b]pyrazine-2,3-dione] | 0.1 to 1 |
| [2H]C([2H])(n1c(=O)c(=O)n(-c2c(C)ccnc2C(C)C)c2nc(-c3c(O)cc(C)cc3F)c(Cl)cc21)C1(F)CN(C(=O)C=C)C1 [Example 48, 1-((1-acryloyl-3-fluoroazetidin-3-yl)methyl-d2)-7-chloro-6-(2-fluoro-6-hydroxy-4-methylphenyl)-4-(2-isopropyl-4-methylpyridin-3-yl)-1,4-dihydropyrido[2,3-b]pyrazine-2,3-dione] | ≤ 0.1 |
| [2H]C([2H])(n1c(=O)c(=O)n(-c2c(C)ccnc2C(C)C)c2nc(-c3c(O)cccc3Cl)c(Cl)cc21)C1(F)CN(C(=O)C=C)C1 [Example 49, 1-((1-acryloyl-3-fluoroazetidin-3-yl)methyl-d2)-7-chloro-6-(2-chloro-6-hydroxyphenyl)-4-(2-isopropyl-4-methylpyridin-3-yl)-1,4-dihydropyrido[2,3-b]pyrazine-2,3-dione] | ≤ 0.1 |
| [2H]C([2H])(n1c(=O)c(=O)n(-c2c(C)ccnc2C(C)C)c2nc(-c3c(O)cccc3Cl)c(Cl)cc21)C1(F)CN(C(=O)C(=C)F)C1 [Example 50, 7-chloro-6-(2-chloro-6-hydroxyphenyl)-1-((3-fluoro-1-(2-fluoroacryloyl)azetidin-3-yl)methyl-d2)-4-(2-isopropyl-4-methylpyridin-3-yl)-1,4-dihydropyrido[2,3-b]pyrazine-2,3-dione] | ≤ 0.1 |
| [2H]C([2H])(n1c(=O)c(=O)n(-c2c(C)ccnc2C(C)C)c2nc(-c3cncc(C)c3C)c(Cl)cc21)C1(F)CN(C(=O)C=C)C1 [Example 52, 1-((1-acryloyl-3-fluoroazetidin-3-yl)methyl-d2)-7-chloro-6-(4,5-dimethylpyridin-3-yl)-4-(2-isopropyl-4-methylpyridin-3-yl)-1,4-dihydropyrido[2,3-b]pyrazine-2,3-dione] | 1 to 5 |
| [2H]C([2H])(n1c(=O)c(=O)n(-c2c(C)ccnc2C(C)C)c2nc(-c3cccc4ccccc34)c(Cl)cc21)C1(F)CN(C(=O)C=C)C1 [Example 53, 1-((1-acryloyl-3-fluoroazetidin-3-yl)methyl-d2)-7-chloro-4-(2-isopropyl-4-methylpyridin-3-yl)-6-(naphthalen-1-yl)-1,4-dihydropyrido[2,3-b]pyrazine-2,3-dione] | ≤ 0.1 |
| [2H]C([2H])(n1c(=O)c(=O)n(-c2c(C)ccnc2C(C)C)c2nc(-c3ccnc(C)c3Cl)c(Cl)cc21)C1(F)CN(C(=O)C=C)C1 [Example 54, 1-((1-acryloyl-3-fluoroazetidin-3-yl)methyl-d2)-7-chloro-6-(3-chloro-2-methylpyridin-4-yl)-4-(2-isopropyl-4-methylpyridin-3-yl)-1,4-dihydropyrido[2,3-b]pyrazine-2,3-dione] | 0.1 to 1 |
| [2H]C([2H])(n1c(=O)c(=O)n(-c2c(C)ccnc2C(C)C)c2nc(-c3ccccc3-c3ccccc3)c(Cl)cc21)C1(F)CN(C(=O)C=C)C1 [Example 55, 6-([1,1′-biphenyl]-2-yl)-1-((1-acryloyl-3-fluoroazetidin-3-yl)methyl-d2)-7-chloro-4-(2-isopropyl-4-methylpyridin-3-yl)-1,4-dihydropyrido[2,3-b]pyrazine-2,3-dione] | 0.1 to 1 |
